Source: US20260373193A1, “CARCINOGENESIS REDUCTION WITH PENTAAZA MACROCYLIC RING COMPLEX” (GALERA LABS, LLC, priority 2023, published 2026)
Entries after “also recorded” stand apart in the source; their conditions may differ.

Assays:
[1] = tested on: Non-Small Cell Lung Carcinoma Cell Lines; conditions: NSCLC cell lines; with cisplatin or cisplatin plus radiation; cited from earlier work
[2] = tested on: hepatosplenomegaly; test: incidence of hepatosplenomegaly at necropsy; type: in vivo, mouse (female BALB/c); conditions: for # Enlarged (hepatosplenomegaly) / % Yield (percentage of mice with hepatosplenomegaly): GC4419 24 mg/kg i.p.
Experimental: (§1) All animal studies conducted used female BALB/c mice irradiated at 77-91 days of age and housed for a lifetime study to determine rates of carcinogenesis and survival. Animals were purchased from Charles River Laboratory, shipped to Brookhaven National Laboratory, and irradiated with the doses and ion species described below.
(§2) Animals were treated or not with GC4419. Those animals treated with GC4419 followed the following strategy. GC4419 was delivered at a dose of 24 mg/kg (mice were weighed prior to drug delivery) interperitoneally (i.p.) at roughly 45-60 minutes prior to radiation exposure. GC4419 was then provided i.p. for the next 6 days, and the animals were shipped to UT Southwestern (UTSW) Medical Center for temporary quarantine before returning to the animal facility. Upon return to UTSW the animals were treated with GC4419 i.p. weekly for another 11 weeks for a total of 12 weeks on treatment.
(§3) Radiation exposures were whole body. The galactic cosmic ray (GCR) simulation exposures used the beam line at the NASA Space Radiation Laboratory at Brookhaven National Lab (BNL) and the γ-ray exposures used a ^137Cs source at BNL. Subsequent to single dose irradiation, animals were returned to their cages.
(§4) Galactic cosmic rays (GCR) are heavy ion radiation characteristic of the deep space environment, and the GCR simulation (GCRsim) at BNL mimics the complex radiation environment in space. The GCRsim ions used are described in Table 1 below.
(§5) Pathological endpoints were also considered. Specifically, lung cancer induction, or carcinogenesis, and other tumors that are evident in numbers large enough to consider as secondary endpoints. These endpoints are described in the following tables and figure. The term “masses” is used to describe an abnormal growth, evident by eye, within a given tissue; for example, the term “lung masses” is used to describe abnormal tissues found in the lung that are collected for pathologic examination.
(§6) Given prior experience with the mouse model of radiation-induced carcinogenesis, it is expected that most, if not all, of the lung masses are tumors. For the ovarian masses, some proportion of the masses are expected to be tumors. For observations of hepatosplenomegaly, many of the enlarged livers and spleens may not reflect tumors of those organs. These may, however, may be present as result of hematologic malignancies, such as leukemias, but that was not assessed in this experiment.
Table 4 presents the incidence of hepatosplenomegaly observed at necropsy by treatment cohort, in general through approximately 700 days, for certain γ-ray cohorts through approximately 600 days post-irradiation, and for unirradiated animals treated with GC4419 (Control+GC4419) cohort through approximately 400 days post-irradiation.

[3] = tested on: female BALB/c mice; test: long-term survival of irradiated and unirradiated mice treated or not with GC4419; type: in vivo, mouse (female BALB/c)
Experimental: as §1, §2, §3, §4
FIGS. 1A-1D represent survival in cohorts where animals were exposed to single dose whole-body γ-rays or not irradiated (Control), and treated or not with GC4419. FIGS. 1A-1B present preliminary results through approximately 400-600 days post-irradiation depending on the cohort. FIGS. 1C-1D present final results. As expected, the survival curves show in the animals not treated with GC4419, trends to survival decreasing with increasing γ-ray dose from unirradiated Control to 0.75 Gy (FIGS. 1B & 1D) to 1.5 Gy (FIGS. 1A & 1C).
FIGS. 2A-2D represent survival in cohorts where animals were exposed to single dose whole-body GCRsim radiation or not irradiated (Control), and treated or not with GC4419. FIGS. 2A-2B present results, including preliminary data for unirradiated animals treated with GC4419 (Control+GC4419) cohort through approximately 400 days post-irradiation. FIGS. 2C-2D present final results for all the presented cohorts. As with γ-rays, the survival curves show in the animals not treated with GC4419, trends to survival decreasing with increasing GCRsim dose from unirradiated control to 0.4 Gy to 0.75 Gy. […] This may reflect that GCRsim is a combination of various radiations of varying carcinogenic potential curves.
FIGS. 3A-3C represent survival in cohorts where unirradiated animals (Control) were treated or not with GC4419. FIG. 3A presents results through approximately 400 days post-irradiation with the range of the y-axis covering 95-100% survival. FIG. 3B-3C present final results with the ranges of the y-axis covering 0-100% and 70-100% survival.

[4] = tested on: VEGFr inhibitor-induced pulmonary disease; conditions: rat; cited from earlier work
[5] = tested on: lung masses; test: incidence of lung masses at necropsy; type: in vivo, mouse (female BALB/c); conditions: for # Lung Masses / % Yield (percentage mice with lung masses): GC4419 24 mg/kg i.p.; for occurrence of lung masses vs untreated / incidence of lung tumors vs untreated: final results (FIG. 4)
Experimental: as §1, §2, §3, §4, §5, §6
Table 2 presents the incidence of lung masses observed at necropsy by treatment cohort, including preliminary data for certain γ-ray cohorts through approximately 600 days post-irradiation and for unirradiated animals treated with GC4419 (Control+GC4419) cohort through approximately 400 days post-irradiation. FIG. 4 presents final results for incidence of lung masses. […] In other words, in part GC4419 could have delayed carcinogenesis.

[6] = tested on: established tumors; conditions: cited from earlier work
[7] = tested on: acute and sub-chronic radiation damage; platinum therapy kidney damage; conditions: mucositis, pulmonary pneumonitis and fibrosis, liver damage; cited from earlier work
[8] = tested on: oral mucositis; conditions: head-and-neck cancer patients, chemoradiation, Phase IIB; cited from earlier work

[Cl][Mn][Cl].c1cc2nc(c1)CN[C@H]1CCCC[C@@H]1NCCN[C@H]1CCCC[C@@H]1NC2 [GC4419]
response to cisplatin and cisplatin plus radiation [1]: Enhances the Response of Non-Small Cell Lung Carcinoma Cell Lines to Cisplatin and Cisplatin Plus Radiation | # Enlarged (hepatosplenomegaly) ([2]; GCRsim 0.4 Gy, 224 mice, approx. 700 days): 33 | % Yield (percentage of mice with hepatosplenomegaly) ([2]; GCRsim 0.4 Gy, 224 mice, approx. 700 days, untreated pair 13.9): 14.7% | # Enlarged (hepatosplenomegaly) ([2]; GCRsim 0.75 Gy, 248 mice, approx. 700 days): 36 | % Yield (percentage of mice with hepatosplenomegaly) ([2]; GCRsim 0.75 Gy, 248 mice, approx. 700 days, untreated pair 7.7): 14.5% | # Enlarged (hepatosplenomegaly) ([2]; unirradiated (0 Gy), 235 mice, approx. 400 days): 1 | % Yield (percentage of mice with hepatosplenomegaly) ([2]; unirradiated (0 Gy), 235 mice, approx. 400 days, untreated pair 5.1): 0.4% | hepatosplenomegaly incidence vs untreated ([2]; within paired cohorts): no consistent trend to increased or decreased incidence within paired cohorts | # Enlarged (hepatosplenomegaly) ([2]; γ-ray 0.75 Gy, 248 mice, certain γ-ray cohorts approx. 600 days): 9 | % Yield (percentage of mice with hepatosplenomegaly) ([2]; γ-ray 0.75 Gy, 248 mice, certain γ-ray cohorts approx. 600 days, untreated pair 10.6): 3.6% | # Enlarged (hepatosplenomegaly) ([2]; γ-ray 1.5 Gy, 248 mice, certain γ-ray cohorts approx. 600 days): 17 | % Yield (percentage of mice with hepatosplenomegaly) ([2]; γ-ray 1.5 Gy, 248 mice, certain γ-ray cohorts approx. 600 days, untreated pair 7.5): 6.8% | survival vs irradiated untreated ([3]; GCRsim 0.4 Gy, 24 mg/kg i.p., final results): neither increases nor decreases survival | survival vs irradiated untreated ([3]; GCRsim 0.75 Gy, 24 mg/kg i.p., final results, p<0.05): statistically significantly increased survival | survival vs unirradiated untreated ([3]; unirradiated (Control), 24 mg/kg i.p., final results, p<0.01 (FIGS. 3A-3C), 24 mg/kg): statistically significantly increased survival; also recorded: appears to increase survival in unirradiated animals | survival, overall ([3]; variety of radiation types and doses): appears to have an effect on survival in animals exposed to a variety of radiation types and doses | survival vs unirradiated animals not treated with GC4419 ([3]; γ-ray 0.75 Gy, 24 mg/kg i.p., final results): equivalent survival to unirradiated animals not treated with GC4419 | survival vs irradiated untreated ([3]; γ-ray 0.75 Gy, 24 mg/kg i.p., final results, p<0.01 (FIG. 1D)): statistically significantly increased survival | survival vs irradiated untreated ([3]; γ-ray 1.5 Gy, 24 mg/kg i.p., final results, p<0.05 (FIG. 1C)): statistically significantly increased survival | pulmonary disease [4]: attenuate VEGFr inhibitor-induced pulmonary disease | # Lung Masses ([5]; GCRsim 0.4 Gy, 224 mice): 24 | % Yield (percentage mice with lung masses) ([5]; GCRsim 0.4 Gy, 224 mice, untreated pair 10.0): 10.7% | # Lung Masses ([5]; GCRsim 0.75 Gy, 248 mice): 27 | % Yield (percentage mice with lung masses) ([5]; GCRsim 0.75 Gy, 248 mice, untreated pair 21.0): 10.9% | occurrence of lung masses vs untreated ([5]; GCRsim 0.75 Gy, p<0.01): markedly and statistically significantly decreased occurrence of lung masses | # Lung Masses ([5]; unirradiated (0 Gy), 235 mice, preliminary, approx. 400 days): 1 | % Yield (percentage mice with lung masses) ([5]; unirradiated (0 Gy), 235 mice, preliminary, approx. 400 days, untreated pair 10.6): 0.4% | incidence of lung tumors vs untreated ([5]; unirradiated (Control)): absence of a clear difference | # Lung Masses ([5]; γ-ray 0.75 Gy, 248 mice, preliminary for certain γ-ray cohorts (approx. 600 days)): 15 | % Yield (percentage mice with lung masses) ([5]; γ-ray 0.75 Gy, 248 mice, preliminary for certain γ-ray cohorts (approx. 600 days), untreated pair 14.7): 6.0% | occurrence of lung masses vs untreated ([5]; γ-ray 0.75 Gy, p<0.05): markedly and statistically significantly decreased occurrence of lung masses | # Lung Masses ([5]; γ-ray 1.5 Gy, 248 mice, preliminary for certain γ-ray cohorts (approx. 600 days)): 16 | % Yield (percentage mice with lung masses) ([5]; γ-ray 1.5 Gy, 248 mice, preliminary for certain γ-ray cohorts (approx. 600 days), untreated pair 11.9): 6.5% | incidence of lung tumors vs untreated ([5]; γ-ray 1.5 Gy): absence of a clear difference | efficacy of radiation and other therapies [6]: enhance the efficacy of radiation and other therapies | overt acute and sub-chronic radiation damage; platinum therapy kidney damage [7]: reduce overt acute and sub-chronic radiation damage | oral mucositis [8]: reduce oral mucositis
